Test results as given in patent US20060073188A1, “Fast-dissolving isotropic expanded microporous composition or structure for pharmaceutical, veterinary, dietetic, food or cosmetic use and method for obtaining same” (PIERRE FABRE MEDICAMENT, priority 1999, published 2006).

Test: physchem

O=c1[nH]c2ccccc2n1CCCN1CCC(n2c(=O)[nH]c3cc(Cl)ccc32)CC1 [domperidone]
solubility: < 0.1 mg/mL

CN1C(C(=O)Nc2ccccn2)=C(O)c2ccccc2S1(=O)=O [piroxicam]
solubility: < 0.1 mg/mL
